# Test results reported in US20050267124A1, “Pharmaceutical compositions comprising NEP-inhibitors, inhibitors of the endogenous producing system and PDEV inhibiitors” (Solvay Pharmaceuticals GmbH, priority 2004, published 2005).
# Assays:
# [1] = test system: Male Sprague-Dawley rats; assay: Big-ET-induced hypertension following intravenous bolus administration in rats; type: in vivo, rat; details: for Maximal Big-ET-induced increase in SAP: anaesthetised rats, i.v. bolus sildenafil 1 mg/kg and/or compound of Formula IV 10 μmol/kg, 0.5 nmol/kg Big-ET 8 min later, mean increase from baseline
# Procedure: 1. Big-ET-Induced Hypertension Following Intravenous Bolus Administration in Rats
# Male Sprague-Dawley rats (˜[…], fed a standard chow diet, fasted for 18 h prior to the experiments, with free access to drinking water) were anaesthetised with 1 ml/kg Rompun/Ketavet 1:1, and then transferred to servo-controlled, heated tables to maintain body temperature at 37° C. A pressure transducer (Statham) was connected to one carotid artery for measurement of arterial blood pressure. Both jugular veins were cannulated for compound and Big-ET-infusion (Big-ET=endogenous precursor of endothelin), respectively. After an equilibration period of 20 minutes (=min), the animals received either vehicle (10% arlatone G, 10% ethanol, 80% H2O), sildenafil (1 mg/kg), compound of Formula IV (10 μmol/kg), or a combination of sildenafil+compound of Formula IV intravenously (over 1 min in a total volume of 2 ml/kg body weight). 8 min later, 0.5 nmol/kg Big-ET was infused (over 1 min; Big-ET was from Bachem, Heidelberg). Systolic (SAP) and diastolic arterial blood pressures and heart rate were recorded every 5 min for the next 15 min.
# The maximal pressor and bradycardic effects were typically reached within 5 min following Big-ET administration.
# (§1) The results are expressed as mean±SEM of the maximal systolic blood pressure increase (from baseline) observed after the Big-ET challenge (n: number of animals). 2. Effect on Blood Pressure in Spontaneously Hypertensive Rats
# [2] = test system: spontaneously hypertensive rats (SHR); assay: Effect on blood pressure in spontaneously hypertensive rats (telemetry); type: in vivo, rat; details: i.v. sildenafil 3 mg/kg, alone or with compound of Formula IV 10 μmol/kg, change vs. baseline averaged over last 15 min of 30 min after treatment
# Text: as §1
# Male spontaneously hypertensive rats (=SHR, insulin resistant strain from Charles River; aged 6 months) were equipped with telemetry transmitters for continuous monitoring of blood pressure and heart rate. Telemetry transmitters for continuous monitoring of blood pressure, heart rate and locomotor activity (TA11PA-C40, Data Sciences, USA) were implanted intraabdominally under inhalative halothane anesthesia. A midline abdominal incision was made, and the abdominal aorta was visualized by removal of retroperitoneal fat and connective tissue. A ligature was placed caudal of the renal arteries, the aorta was punctured with a 22G needle, and the catheter was advanced into the aorta. The entry point was sealed with tissue adhesive (Vetbond®, 3M, USA), the ligature was removed, and the abdominal incision was closed. […]
# On the day of the experiments, blood pressure was first monitored for 30 min under baseline (untreated) conditions before a group of animals received sildenafil (3 mg/kg), and another one sildenafil (3 mg/kg) combined with compound of Formula IV (10 μmol/kg) via injection into the caudal vein. Blood pressure was then measured for another 30 min. […]
SMILES,Maximal Big-ET-induced increase in SAP [1] [mm Hg],"effect on the hypotensive action of sildenafil ([1]; compound of Formula IV 10 μmol/kg i.v. with sildenafil 1 mg/kg, before Big-ET challenge)",Average change in systolic blood pressure [2] [mm Hg],"time for which the drop in blood pressure was stable ([1]; after i.v. sildenafil 1 mg/kg, until timepoint of Big-ET application)","drop in systolic blood pressure as compared to baseline ([1]; immediately after i.v. administration, before the Big-ET challenge, sildenafil 1 mg/kg, compound of Formula IV 10 μmol/kg) [mm Hg]"
"O=C(O)CN1C(=O)C(NC(=O)C2(CC(CCc3ccccc3)C(=O)O)CCCC2)CCc2ccccc21 (stereo not drawn) [compound of Formula IV, 2-[1-(1-carboxymethyl-2-oxo-2,3,4,5-tetrahydro-1H-benzo[b]azepin-3-ylcarbamoyl)-cyclopentylmethyl]-4-phenyl-butyric acid]",43.0,not reinforce the hypotensive action of sildenafil,–,–,–
"CCCc1nn(C)c2c(=O)[nH]c(-c3cc(S(=O)(=O)N4CCN(C)CC4)ccc3OCC)nc12 [Sildenafil, sildenafil]",42.6,–,−10.5,at least 8 min,15±3
